# Assay results as given in PubChem BioAssay (NCI).
#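 The compound was tested at five concentrations on cells cultured in 96-well plates, with a 48-hour exposure period. TGI: concentration producing complete growth inhibition.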
# Legend:
# Assay in all cases: NCI-60 cell line screen, 48 h
# [1] = test system: 786-0 renal
# [2] = test system: A498 renal
# [3] = test system: A549 NSCLC
# [4] = test system: ACHN renal
# [5] = test system: CAKI-1 renal
# [6] = test system: CCRF-CEM leukemia
# [7] = test system: COLO 205 colon
# [8] = test system: DLD-1 colon
# [9] = test system: DMS 114 small cell lung
# [10] = test system: DMS 273 small cell lung
# [11] = test system: EKVX NSCLC
# [12] = test system: HCC-2998 colon
# [13] = test system: HCT-116 colon
# [14] = test system: HCT-15 colon
# [15] = test system: HL-60(TB) leukemia
# [16] = test system: HOP-18 NSCLC
# [17] = test system: HOP-62 NSCLC
# [18] = test system: HOP-92 NSCLC
# [19] = test system: HT29 colon
# [20] = test system: IGROV1 ovarian
# [21] = test system: K-562 leukemia
# [22] = test system: KM12 colon
# [23] = test system: KM20L2 colon
# [24] = test system: LOX IMVI melanoma
# [25] = test system: LXFL 529 NSCLC
# [26] = test system: M14 melanoma
# [27] = test system: M19-MEL melanoma
# [28] = test system: MALME-3M melanoma
# [29] = test system: MOLT-4 leukemia
# [30] = test system: NCI-H226 lung
# [31] = test system: NCI-H23 lung
# [32] = test system: NCI-H460 lung
# [33] = test system: NCI-H522 lung
# [34] = test system: OVCAR-3 ovarian
# [35] = test system: OVCAR-4 ovarian
# [36] = test system: OVCAR-5 ovarian
# [37] = test system: OVCAR-8 ovarian
# [38] = test system: RPMI-8226 leukemia
# [39] = test system: RXF 393 renal
# [40] = test system: SF-268 CNS
# [41] = test system: SF-295 CNS
# [42] = test system: SF-539 CNS
# [43] = test system: SK-MEL-2 melanoma
# [44] = test system: SK-MEL-28 melanoma
# [45] = test system: SK-OV-3 ovarian
# [46] = test system: SN12C renal
# [47] = test system: SNB-19 CNS
# [48] = test system: SNB-75 CNS
# [49] = test system: SNB-78 CNS
# [50] = test system: SR leukemia
# [51] = test system: SW-620 colon
# [52] = test system: TK-10 renal
# [53] = test system: U251 CNS
# [54] = test system: UACC-257 melanoma
# [55] = test system: UACC-62 melanoma
# [56] = test system: UO-31 renal
# [57] = test system: XF 498 CNS
# [58] = test system: BT-549 breast
# [59] = test system: DU-145 prostate
# [60] = test system: HS 578T breast
# [61] = test system: MCF7 breast
# [62] = test system: MDA-MB-231 breast
# [63] = test system: MDA-MB-435
# [64] = test system: MDA-N
# [65] = test system: NCI/ADR-RES ovarian
# [66] = test system: PC-3 prostate
# [67] = test system: SK-MEL-5 melanoma
# [68] = test system: T-47D breast
smiles,measurement,setting,value
NC(=O)N1N=C2c3ccccc3OC[C@H]2[C@@H]1c1ccccc1,TGI,[1],> 100 µM
same,TGI,[2],> 81.5 µM
same,TGI,[3],> 100 µM
same,TGI,[4],> 100 µM
same,TGI,[5],> 100 µM
same,TGI,[6],> 100 µM
same,TGI,[7],51.5 µM
same,TGI,[8],> 100 µM
same,TGI,[9],34.2 µM
same,TGI,[10],> 100 µM
same,TGI,[11],> 100 µM
same,TGI,[12],> 37.1 µM
same,TGI,[13],> 39.2 µM
same,TGI,[14],> 81.6 µM
same,TGI,[15],61.7 µM
same,TGI,[16],> 100 µM
same,TGI,[17],> 100 µM
same,TGI,[18],> 100 µM
same,TGI,[19],67.6 µM
same,TGI,[20],> 100 µM
same,TGI,[21],> 100 µM
same,TGI,[22],16.6 µM
same,TGI,[23],49.8 µM
same,TGI,[24],> 100 µM
same,TGI,[25],> 100 µM
same,TGI,[26],5.59 µM
same,TGI,[27],> 100 µM
same,TGI,[28],> 100 µM
same,TGI,[29],97.2 µM
same,TGI,[30],74.7 µM
same,TGI,[31],> 92.4 µM
same,TGI,[32],60.2 µM
same,TGI,[33],12.7 µM
same,TGI,[34],> 76.3 µM
same,TGI,[35],> 100 µM
same,TGI,[36],72.1 µM
same,TGI,[37],27.2 µM
same,TGI,[38],> 89.3 µM
same,TGI,[39],8.7 µM
same,TGI,[40],> 80.4 µM
same,TGI,[41],> 35.7 µM
same,TGI,[42],19.1 µM
same,TGI,[43],> 100 µM
same,TGI,[44],> 100 µM
same,TGI,[45],> 100 µM
same,TGI,[46],> 100 µM
same,TGI,[47],> 100 µM
same,TGI,[48],> 91.7 µM
same,TGI,[49],> 95.3 µM
same,TGI,[50],56 µM
same,TGI,[51],> 100 µM
same,TGI,[52],> 100 µM
same,TGI,[53],28.5 µM
same,TGI,[54],> 100 µM
same,TGI,[55],19.9 µM
same,TGI,[56],> 100 µM
same,TGI,[57],> 100 µM
COc1cc(OC)c(OC)cc1/C=C\c1ccnc2ccccc12,TGI,[1],61.6 µM
same,TGI,[2],5.64 µM
same,TGI,[3],> 72.6 µM
same,TGI,[4],> 100 µM
same,TGI,[58],> 100 µM
same,TGI,[5],> 79.5 µM
same,TGI,[6],67.8 µM
same,TGI,[7],3.86 µM
same,TGI,[8],> 100 µM
same,TGI,[59],> 100 µM
same,TGI,[11],> 46.3 µM
same,TGI,[12],17.8 µM
same,TGI,[13],54.8 µM
same,TGI,[14],> 100 µM
same,TGI,[15],5 µM
same,TGI,[17],> 62.1 µM
same,TGI,[18],45 µM
same,TGI,[60],1.15 µM
same,TGI,[19],16.1 µM
same,TGI,[20],> 72.9 µM
same,TGI,[21],31.3 µM
same,TGI,[22],> 67.5 µM
same,TGI,[23],6.86 µM
same,TGI,[24],> 42.5 µM
same,TGI,[25],> 100 µM
same,TGI,[26],38.9 µM
same,TGI,[27],> 100 µM
same,TGI,[28],> 100 µM
same,TGI,[61],> 100 µM
same,TGI,[62],28.8 µM
same,TGI,[63],0.534 µM
same,TGI,[64],0.791 µM
same,TGI,[29],> 90.2 µM
same,TGI,[30],30.2 µM
same,TGI,[31],23.5 µM
same,TGI,[32],37.3 µM
same,TGI,[33],4.25 µM
same,TGI,[65],12.1 µM
same,TGI,[34],7.44 µM
same,TGI,[35],> 100 µM
same,TGI,[36],> 100 µM
same,TGI,[37],> 100 µM
same,TGI,[66],> 100 µM
same,TGI,[38],99.1 µM
same,TGI,[39],5.28 µM
same,TGI,[40],> 86.2 µM
same,TGI,[41],3.55 µM
same,TGI,[42],1.32 µM
same,TGI,[43],7.4 µM
same,TGI,[44],> 100 µM
same,TGI,[67],19.7 µM
same,TGI,[45],9.68 µM
same,TGI,[46],> 100 µM
same,TGI,[47],> 74.5 µM
same,TGI,[48],2.51 µM
same,TGI,[49],> 100 µM
same,TGI,[50],> 100 µM
same,TGI,[51],> 63.1 µM
same,TGI,[68],> 100 µM
same,TGI,[52],31.4 µM
same,TGI,[53],16.5 µM
same,TGI,[54],> 100 µM
same,TGI,[55],> 67.9 µM
same,TGI,[56],> 80.6 µM
